Source: patent publication US11872230B2, “Method of treating a methionine-dependent cancer” (Agency for Science, Technology and Research, priority 2018, dated 2024)

What was measured:
[1] = test system: histone methylation in TS cells; assay: Western blot of methylated histones in TS cells; format: cell-based, human; settings: TS cells exposed transiently (48 h) to inhibitor
Description: 1.5×10^6 cells were lysed in Llaemli-SDS buffer and then sonicated. Total protein concentration was measured by Bradford assay. Total cell lysates were separated by SDS-PAGE and transferred onto nitrocellulose, followed by blocking in 5% (v/v) milk in Tris-buffered saline in Tween 20, probing with the indicated antibodies and visualized by chemiluminescence (Roche). Primary antibodies used were anti-β-Actin (sc-47778), anti-GAPDH (sc-32233) from Santa Cruz: anti-GLDC (ab97625), anti-H3 (ab1791), anti-H3 (dimethylK36) (ab9049), anti-MAT2A (ab77471), anti-MTR (ab9209), anti-H3 (trimethylK79) (ab2621), anti-MTHFR (ab125707), anti-MTAP (ab ab55517) from Abcam; anti-H3(trimethyl K4) (39159), anti-H3(trimethyl K27)(39155), anti-H3(trimethylK36)(61101) and anti-H3(trimethylK9)(39765) from Active Motif; anti-β-catenin (BD610154) from BD Biosciences; anti-SHMT2 (HPA020549) and anti-SAHH (WH0000191M8) from Sigma; anti-Symmetric Di-Methyl Arginine Motif (13222) from CST.
(§1) To evaluate the methionine cycle as a therapeutic target in lung TICs, small molecule inhibitors that target enzymes within this pathway were employed, mimicking the effects of short-term methionine starvation (FIG. 5a). two inhibitors known to perturb methionine cycle activity and cellular methylation levels: 1) MAT2A inhibitor, FIDAS5; and 2) SAHH inhibitor, D9, which is an analog of DZNep. In a manner similar to amino acid starvation studies, TS cells were exposed transiently to the compounds for 48 h in culture and were immediately used for downstream tumorigenesis assays.

TS cells (lung TICs) [2] = assay: Tumor formation in NSG mice after transplantation of pre-treated TS cells; format: in vivo; settings: 500,000 TS cells treated 48 h with inhibitor, transplanted into NSG mice, 6 weeks
Text: (§2) 5×10^5 single cells were mixed in a 1:1 mixture of serum free DMEM/F12 and Matrigel (BD) and injected subcutaneously into the flanks of 4-6 week old male and female NOD.Cg-Prkdc^scid Il2rg^tm1wjl SzJ (Jackson Laboratories). About 6 weeks later, or when tumor sizes exceed 2 cm in length, mice were sacrificed and tumors harvested for analysis. All animal experiments were approved by the Agency for Science Technology and Research Singapore—Biological Resource Centre. Mice were randomized by sex.
as §1

TS cells (lung TICs) [3] = assay: Intraperitoneal administration to NSG mice subcutaneously implanted with lung TICs; format: in vivo; settings: FIDAS5 40 mg/kg i.p., three consecutive days, after 6 weeks
Text: as §2
(§3) Since FIDAS5 appeared to more specifically disrupt the methionine cycle and inhibit cellular methylation activities compared to D9, it was sought to test whether its systemic delivery could impact the tumorigenic potential of TS cells. These highly tumorigenic cells were first subcutaneously implanted into NSG mice and FIDAS5 (40 mg/kg) or corn oil carrier was immediately administered via intraperitoneal injection for three consecutive days. After 6 weeks, mice transiently treated with FIDAS5 produced tumors that were much smaller than carrier-treated controls. […] To exclude the possibility of general cytotoxicity associated with the inhibitor on TS cells, TS cell-implanted NSG mice were treated with cisplatin (4 mg/kg), a frontline chemotherapeutic agent that broadly target bulk cancer cells in NSCLC tumors, in the same manner (FIG. 5i). […]

TS cells = assay: Orthotopically implanted GFP-expressing TS cells in lungs of NSG mice; format: in vivo; settings: orthotopic TS cells, transient treatment for 3 days, 5 weeks post implantation
Text: GFP expressing 1.5×10^6 single TS cells (transduced with PLL3.7 vector) with suspended in tumor sphere media and injected intravenously through tail-vein into 4-6 week old male and female NOD.Cg-Prkdc^scid Il2rg^tm1wjl SWJ (Jackson Laboratories) mice. Mice were continuously monitored and then sacrificed at 5 weeks post injection. Lungs were harvested, fixed in 4% paraformaldehyde and embedded in paraffin for subsequent analysis. Anti-GFP (ab13970) antibody from Abcam and Alexa-Fluor Goat 488 anti-Chicken antibody (A-11039; ThermoFisher) was used to visualize and quantify GFP-positive lesions using immunofluorescence protocol outlined above. Mice were randomized by sex.
Since FIDAS5 appeared to more specifically disrupt the methionine cycle and inhibit cellular methylation activities compared to D9, it was sought to test whether its systemic delivery could impact the tumorigenic potential of TS cells. These highly tumorigenic cells were first subcutaneously implanted into NSG mice and FIDAS5 (40 mg/kg) or corn oil carrier was immediately administered via intraperitoneal injection for three consecutive days. After 6 weeks, mice transiently treated with FIDAS5 produced tumors that were much smaller than carrier-treated controls. […]

[4] = test system: lung patient-derived xenograft (PDX) cells A139, A233; assay: Patient-derived lung tumor xenografts (PDX) in NSG mice; format: in vivo; settings: two PDX lines, FIDAS5 40 mg/kg for three days after implantation, six weeks
Text: as §2, §3

[5] = test system: cancer cell lines with high or low MAT2A expression; assay: Proliferation of cancer cell lines grown in FIDAS5 containing medium; format: cell-based; settings: 10 uM
Description: Cells were seeded into 96-well plates at a density of 2,000 cells/well for TS cells and 500 cells/well for Adh cells. The relative number of viable cells was determined by the quantification of ATP using the CellTiter-Glo Luminescent Cell Viability Assay (Promega) system.

SMILES: CNc1ccc(/C=C/c2c(F)cccc2Cl)cc1 [FIDAS5]
- histone methylation levels [1]: complete ablation
- tumor-forming ability (TS cells (lung TICs) [2]): severely diminished
- tumor size vs carrier-treated controls (TS cells (lung TICs) [3]): much smaller
- number of pulmonary lesions (TS cells): decreased number of pulmonary lesions
- xenograft tumors smaller relative to sham-treated mice [4]: at least 6 fold
- growth upon FIDAS5 treatment ([5]; cancer cell lines expressing high MAT2A): dramatically hampered in their growth
- growth upon FIDAS5 treatment ([5]; cancer cell lines expressing low MAT2A): largely insensitive
